Data taken from patent publication US10278942B2 (PELOTON THERAPEUTICS, INC., priority 2015, dated 2019).
Where two headings read alike, the source gives them in different places.

What was measured:
[1] = target: T1, HIF-2α HIS TAG-PASB Domain (Homo sapiens, UniProt Q99814); experiment: HIF-2α Scintillation Proximity Assay (SPA); format: binding
T1 construct: 100 nM HIF-2α HIS TAG-PASB Domain
How it was run: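 IC50 values rest on percent inhibition, where the sample signal is scaled between high and low controls. Wells contain about 100 μL: compound dispensed as 2 μL of DMSO solution, 88 μL protein-probe mix and 10 μL of beads.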

786-O-Hif-Luc cells = experiment: Luciferase Assay (HIF responsive elements reporter)
Description: A pool of infected cells were then selected against 2 μg/mL of puromycin (P8833, Sigma) for 10 days followed by limited dilution to select single clones. […] Each concentration was tested in triplicate. After about 24 hours, luciferase activity was determined using ONE-Glo Luciferase Assay Reagent (E6110, Promega) following the manufacturer's recommended procedure. EC50 were calculated using Dotmatics software.

[2] = read-out: Scintillation Proximity Assay IC50
[3] = read-out: Mean Luciferase EC50 (nM), 786-O-Hif-Luc cells

T1 sequence (Q99814 240-350 limits assumed): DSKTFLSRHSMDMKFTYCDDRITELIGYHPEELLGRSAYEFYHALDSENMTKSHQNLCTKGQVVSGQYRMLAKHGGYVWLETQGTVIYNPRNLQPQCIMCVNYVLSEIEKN

Row | IC50 [1, 2] [nM] | EC50 (786-O-Hif-Luc cells; [3]) [nM] | SMILES | IC50 ([1]; Scintillation Proximity Assay IC50 (nM)) [nM] | EC50 (786-O-Hif-Luc cells; read-out: Mean Luciferase EC50 (nM)) [nM]
1 | 250 to 1000 | 250 to 1000 | N#Cc1cc(F)cc(Oc2ccc(S(=O)(=O)C(F)F)c3c2CC(F)(F)[C@H]3N)c1 [Compound 207] | – | –
2 | < 50 | 250 to 1000 | O=S(=O)(c1ccc(Oc2ccc(F)c(Br)c2)c2c1[C@H](O)C(F)(F)C2)C(F)F [Compound 194] | – | –
3 | < 50 | 50 to 249 | N#Cc1c(Oc2cc(F)cc(Cl)c2)ccc2c1[C@@H](O)CS2(=O)=O [Compound 348] | – | –
4 | < 50 | 50 to 249 | CO[C@H]1C[C@@H](Oc2ccc(S(=O)(=O)C(F)(F)F)c3c2CC(F)(F)[C@H]3O)C1 [Compound 715] | – | –
5 | > 1000 | > 1000 | O=S1(=O)c2ccc(OCC3CC3)c(C(F)F)c2[C@@H](O)C1(F)F [Compound 439] | – | –
6 | < 50 | < 50 | N#C[C@H]1C[C@@H](Oc2ccc(S(=O)(=O)C(F)(F)F)c3c2CC(F)(F)[C@H]3O)C1 [Compound 787] | – | –
7 | 50 to 249 | 50 to 249 | OC1c2c(C(F)(F)F)ccc(OCC(F)F)c2CC1(F)F (centres unmarked) [Compound 686] | – | –
8 | < 50 | 50 to 249 | N#Cc1cc(F)cc(-c2ccc(S(=O)(=O)C(F)(F)F)c3c2CC(F)(F)[C@H]3O)c1 [Compound 486, (S)-3-(2,2-difluoro-1-hydroxy-7((trifluoromethyl)sulfonyl)-2,3-dihydro-1H-inden-4-yl)-5-fluorobenzonitrile] | – | –
9 | 250 to 1000 | 50 to 249 | N#Cc1cncc(Oc2ccc(S(=O)(=O)C(F)F)c3c2CC(F)(F)[C@H]3O)c1 [Compound 27] | – | –
10 | > 1000 | > 1000 | N#Cc1cncc(Oc2ccc(S(N)(=O)=O)c3c2CC(F)(F)[C@H]3O)c1 [Compound 253] | – | –
11 | 250 to 1000 | 250 to 1000 | N#Cc1cc(F)cc(Nc2ccc(S(=O)(=O)C(F)(F)F)c3c2CCC3O)c1 (centres unmarked) [Compound 505] | – | –
12 | – | – | O=S1(=O)c2ccc(Oc3cc(F)cc(Cl)c3)c(Br)c2[C@@H](O)C1(F)F [Compound 403] | < 50 | < 50
13 | < 50 | < 50 | O=S(=O)(c1ccc(OCC(F)(F)F)c2c1[C@H](O)C(F)(F)C2)C(F)(F)F [Compound 675] | – | –
14 | 50 to 249 | > 1000 | CC(C)(C#N)COc1ccc(S(=O)(=O)C(F)(F)F)c2c1CCC2O (centres unmarked) [Compound 609] | – | –
15 | 50 to 249 | > 1000 | CS(=O)(=O)c1ccc(OCC(F)(F)F)c2c1[C@H](O)C(F)(F)[C@@H]2F [Compound 751] | – | –
16 | 50 to 249 | 50 to 249 | N#CN=S(=O)(CF)c1ccc(Oc2cc(F)cc(C#N)c2)c2c1[C@H](O)[C@H](F)C2 (some centres unmarked) [Compound 276] | – | –
17 | 50 to 249 | 250 to 1000 | CS(=O)(=O)c1ccc(Oc2cc(F)cc(C#N)c2)c(C(F)F)c1C#N [Compound 94] | – | –
18 | 250 to 1000 | 250 to 1000 | O=S(=O)(c1ccc([C@@H]2CCC[C@H](O)C2)c2c1[C@H](O)C(F)(F)C2)C(F)(F)F [Compound 482, (S)-2,2-difluoro-4-((1R,3S)-3-hydroxycyclohexyl)-7-((trifluoromethyl)sulfonyl)-2,3-dihydro-1H-inden-1-ol] | – | –
19 | 50 to 249 | > 1000 | CCOC(=O)/C=C/c1c(S(=O)(=O)C(F)(F)F)ccc(Oc2cc(F)cc(C#N)c2)c1C [Compound 148] | – | –
20 | 250 to 1000 | 250 to 1000 | COCCOc1ccc(S(=O)(=O)C(F)(F)F)c2c1CC(F)(F)C2O (centres unmarked) [Compound 595] | – | –
21 | 250 to 1000 | > 1000 | N#Cc1cc(F)cc(Oc2ccc(S(=O)(=O)C(F)(F)F)cc2C#N)c1 [Compound 120] | – | –

Row | IC50 [1, 2] [nM] | EC50 (786-O-Hif-Luc cells; [3]) [nM] | SMILES | IC50 ([1]; Scintillation Proximity Assay IC50 (nM)) [nM] | EC50 (786-O-Hif-Luc cells; read-out: Mean Luciferase EC50 (nM)) [nM]
22 | > 1000 | > 1000 | O=S(=O)(c1ccc(-c2cccnc2)c2c1[C@H](O)C(F)(F)C2)C(F)(F)F [Compound 558] | – | –
23 | 50 to 249 | > 1000 | OC1c2c(C(F)F)ccc(OCC(F)F)c2CC1(F)F (centres unmarked) [Compound 586] | – | –
24 | 250 to 1000 | > 1000 | O=S(=O)(c1ccc(-c2ccccc2)c2c1[C@H](O)C(F)(F)C2)C(F)(F)F [Compound 487, (S)-2,2-difluoro-4-phenyl-7-((trifluoromethyl)sulfonyl)-2,3-dihydro-1H-inden-1-ol] | – | –
25 | < 50 | 250 to 1000 | Cc1c(Oc2cc(F)cc(C#N)c2)ccc(S(=O)(=O)C(F)(F)F)c1Cl [Compound 144] | – | –
26 | 50 to 249 | 50 to 249 | O=S(=O)(c1ccc(OC2CCOCC2)c2c1C(O)C(F)(F)C2)C(F)F (centres unmarked) [Compound 782] | – | –
27 | 50 to 249 | < 50 | CCCOc1ccc(S(=O)(=O)C(F)(F)F)c2c1CC(F)(F)C2O (centres unmarked) [Compound 584] | – | –
28 | 250 to 1000 | > 1000 | CS(=O)(=O)c1ccc(OC[C@H]2C[C@H]2C#N)c2c1[C@H](O)C(F)(F)[C@@H]2F [Compound 765] | – | –
29 | 250 to 1000 | > 1000 | O=S(=O)(c1ccc(C2=CC(O)CCC2)c2c1[C@H](O)C(F)(F)C2)C(F)(F)F (stereo partly drawn) [Compound 481, (1S)-2,2-difluoro-4-(3-hydroxycyclohex-1-en-1-yl)-7-((trifluoromethyl)sulfonyl)-2,3-dihydro-1H-inden-1-ol] | – | –
30 | 50 to 249 | 250 to 1000 | N#Cc1cccc(-c2ccc(S(=O)(=O)C(F)(F)F)c3c2CC(F)(F)[C@H]3O)c1 [Compound 569] | – | –
31 | < 50 | 50 to 249 | COC(C)COc1ccc(S(=O)(=O)C(F)(F)F)c2c1CC(F)(F)C2O (centres unmarked) [Compound 626] | – | –
32 | > 1000 | > 1000 | N#CN=S1(=O)CC(O)c2c1ccc(Oc1cc(F)cc(F)c1)c2C(F)F (centres unmarked) [Compound 394] | – | –
33 | 250 to 1000 | 250 to 1000 | CCOc1ccc(S(=O)(=O)C(F)F)c2c1CC(F)(F)[C@H]2O [Compound 678] | – | –
34 | < 50 | < 50 | O=S(=O)(c1ccc(OCC2CC2(F)F)c2c1[C@H](O)C(F)(F)C2)C(F)(F)F (some centres unmarked) [Compound 728] | – | –
35 | < 50 | 250 to 1000 | O=S(=O)(c1ccc([C@H]2CCC[C@@H](O)C2)c2c1[C@H](O)C(F)(F)C2)C(F)(F)F [Compound 483] | – | –
36 | > 1000 | > 1000 | O[C@H]1c2c(C(F)(F)F)ccc(OC(F)F)c2CC1(F)F [Compound 670] | – | –
37 | 250 to 1000 | 250 to 1000 | N#Cc1cccc(Oc2ccc(S(=O)(=O)C(F)F)c(CO)c2Br)c1 [Compound 81] | – | –
38 | < 50 | < 50 | N#CC1(COc2ccc(S(=O)(=O)C(F)(F)F)c3c2CC(F)(F)[C@H]3O)CCC1 [Compound 790] | – | –
39 | 250 to 1000 | > 1000 | CS(=O)(=O)c1ccc(Oc2cc(F)cc(C#N)c2)c(C#N)c1Cl [Compound 152] | – | –
40 | < 50 | 50 to 249 | O=S(=O)(c1ccc(Oc2ccc(F)c(Cl)c2)c2c1[C@H](O)C(F)(F)C2)C(F)F [Compound 26] | – | –
41 | 250 to 1000 | > 1000 | O=S(=O)(c1ccc(Oc2cc(F)cc(Cl)c2)c(Cl)c1CCl)C(F)F [Compound 46] | – | –
42 | < 50 | < 50 | O=S(=O)(c1ccc(OC[C@H]2CC2(F)F)c2c1[C@H](O)C(F)(F)C2)C(F)(F)F [Compound 727] | – | –

Row | IC50 [1, 2] [nM] | EC50 (786-O-Hif-Luc cells; [3]) [nM] | SMILES | IC50 ([1]; Scintillation Proximity Assay IC50 (nM)) [nM] | EC50 (786-O-Hif-Luc cells; read-out: Mean Luciferase EC50 (nM)) [nM]
43 | 50 to 249 | 50 to 249 | O=S(=O)(c1ccc(O[C@@H]2CCCOC2)c2c1[C@H](O)C(F)(F)C2)C(F)(F)F [Compound 730] | – | –
44 | 50 to 249 | 50 to 249 | N#CN=S(=O)(CF)c1ccc(Oc2cc(F)cc(C#N)c2)c2c1[C@H](O)C(F)(F)C2 (some centres unmarked) [Compound 285] | – | –
45 | < 50 | < 50 | CS(=O)(=O)c1ccc(Oc2cc(F)cc(Cl)c2)c2c1[C@H](O)C(F)(F)C2 [Compound 160] | – | –
46 | 50 to 249 | 250 to 1000 | CO[C@H]1C[C@H](Oc2ccc(S(=O)(=O)C(F)(F)F)c3c2CC(F)(F)[C@H]3O)C1 [Compound 714] | – | –
47 | 250 to 1000 | > 1000 | N#Cc1cc(F)cc(Oc2ccc3c(c2C(F)F)C(O)CS3(=O)=O)c1 (centres unmarked) [Compound 374] | – | –
48 | > 1000 | > 1000 | N[C@H]1C[C@@H](Oc2ccc(S(=O)(=O)C(F)(F)F)c3c2CC(F)(F)[C@H]3O)C1 [Compound 724] | – | –
49 | 50 to 249 | > 1000 | O=C1c2c(S(=O)(=O)C(F)F)ccc(Oc3ccc(F)c(F)c3)c2CC1(F)F [Compound 195] | – | –
50 | 250 to 1000 | > 1000 | CS(=O)(=O)c1ccc(OC[C@H]2C[C@@H]2C#N)c2c1[C@H](O)C(F)(F)[C@@H]2F [Compound 770] | – | –
51 | > 1000 | > 1000 | C[S+]([O-])c1ccc(Oc2cc(F)cc(C#N)c2)c2c1[C@H](O)C(F)(F)C2 (some centres unmarked) [Compound 272] | – | –
52 | < 50 | > 1000 | Cc1c(Oc2cc(F)cc(Cl)c2)ccc(S(=O)(=O)C(F)(F)F)c1Br [Compound 140] | – | –
53 | 250 to 1000 | > 1000 | CC(O)c1c(S(=O)(=O)C(F)(F)F)ccc(Oc2cc(F)cc(Cl)c2)c1Br (centres unmarked) [Compound 103] | – | –
54 | 250 to 1000 | 250 to 1000 | CCOc1ccc(S(=O)(=O)C(F)(F)F)c2c1CC(F)(F)C2O (centres unmarked) [Compound 591] | – | –
55 | > 1000 | > 1000 | O=S(=O)(c1ccc(Cn2cncn2)c2c1[C@H](O)C(F)(F)C2)C(F)(F)F [Compound 534] | – | –
56 | < 50 | < 50 | O[C@H]1c2c(C(F)(F)F)ccc(OCCCF)c2[C@@H](F)C1(F)F [Compound 582] | – | –
57 | < 50 | 50 to 249 | N#Cc1cncc(Oc2ccc(S(=N)(=O)C(F)(F)F)c3c2CC(F)(F)[C@H]3O)c1 (some centres unmarked) [Compound 314] | – | –
58 | > 1000 | > 1000 | N#Cc1cc(F)cc(Oc2ccc(S(=O)(=O)C(F)(F)F)c3c2CC(F)(F)[C@H]3NCCO)c1 [Compound 291] | – | –
59 | > 1000 | > 1000 | CS(=O)(=O)N[C@H]1C[C@@H](Oc2ccc(S(=O)(=O)C(F)(F)F)c3c2CC(F)(F)[C@H]3O)C1 [Compound 726] | – | –
60 | 250 to 1000 | > 1000 | O=S(=O)(c1ccc(Oc2cc(F)cc(F)c2)c2c1CC(O)C2)C(F)F (centres unmarked) [Compound 22] | – | –
61 | < 50 | < 50 | N#CC1(COc2ccc(S(=O)(=O)C(F)(F)F)c3c2C[C@@H](F)[C@H]3O)CC1 [Compound 661] | – | –
